# Laboratory results reported in patent US8586611B2 (priority 2005, dated 2013).
# Assays:
# Type in all cases: in vivo
# [1] = system: Phytophthora infestans; test: whole plant or invertebrate; conditions: tomato late blight, sprayed 17 h after inoculation; unmarked compounds (no asterisk, not 40 or 10 ppm)
# [2] = system: Phytophthora infestans; test: whole plant or invertebrate; conditions: tomato late blight, sprayed the day before inoculation; unmarked compounds (no asterisk, not 40 or 10 ppm)
# [3] = system: Plasmopara viticola; test: Test B: grape downy mildew, spray 24 h after inoculation (disease rating, 100 = 100% disease control); conditions: sprayed 24 h after inoculation, unmarked compounds (no asterisk, not 40 or 10 ppm)
# Summary of the method: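 This is a curative spray test, applied 24 h after inoculation. Compounds in 50/50 acetone–water with 250 ppm Trem 014 surfactant were sprayed to run-off on P. viticola-infected seedlings, with 200 ppm equating to 500 g/ha. Plants were kept 5 days in a 20 °C growth chamber, then 24 h humid, and scored 0–100 for disease control relative to controls.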
# [4] = system: Erysiphe graminis f. sp. tritici; test: Test E: wheat powdery mildew, spray the day before inoculation (disease rating, 100 = 100% disease control); conditions: sprayed the day before inoculation, 7 days at 20° C., unmarked compounds (no asterisk, not 40 or 10 ppm)
# Summary of the method: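 Protective test: spores of E. graminis f. sp. tritici dusted on wheat seedlings one day after run-off spraying of test suspension (acetone/water with 250 ppm surfactant; 200 ppm = 500 g/ha). Ratings after 7 days in growth chamber at 20° C, 100 = full control, 0 = none, relative to controls.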
SMILES,"Test D disease rating (100 = 100% disease control, 0 = no disease control) [1]","Test C disease rating (100 = 100% disease control, 0 = no disease control) [2]","Test B disease rating (100 = 100% disease control, 0 = no disease control) [3]","Test E disease rating (100 = 100% disease control, 0 = no disease control) [4]"
C[C@@H](NC(=O)c1csc(C2CCN(C(=O)Cc3cccc(Br)c3)CC2)n1)C1CCCCC1 [compound 272],0,50,14,0
C[C@@H](NC(=O)c1csc(C2CCN(C(=O)Cc3cccc(Br)c3)CC2)n1)c1ccc([N+](=O)[O-])cc1 [compound 273],0,0,44,0
Cc1ccc([C@@H](C)NC(=O)c2csc(C3CCN(C(=O)Cc4cccc(Br)c4)CC3)n2)cc1 [compound 274],0,37,29,0
C[C@@H](NC(=O)c1csc(C2CCN(C(=O)Cc3cccc(Br)c3)CC2)n1)c1ccccc1F [compound 276],0,17,30,0
C[C@@H](NC(=O)c1csc(C2CCN(C(=O)Cc3cccc(Br)c3)CC2)n1)c1cccc(C(F)(F)F)c1 [compound 277],0,9,15,0
C[C@@H](NC(=O)c1csc(C2CCN(C(=O)Cc3cccc(Br)c3)CC2)n1)c1ccc(Cl)cc1 [compound 280],0,24,0,0
COc1cccc([C@@H](C)NC(=O)c2csc(C3CCN(C(=O)Cc4cccc(Br)c4)CC3)n2)c1 [compound 281],0,0,15,0
C=CCN(C(=O)c1csc(C2CCN(C(=O)Cc3cc(C)ccc3C)CC2)n1)[C@H](C)c1ccccc1 [compound 284],0,21,10,0
Cc1ccc(C)c(CC(=O)N2CCC(c3nc(C(=O)N(C(C)C)[C@H](C)c4ccccc4)cs3)CC2)c1 [compound 285],0,25,10,0
CCN(C(=O)c1csc(C2CCN(C(=O)Cc3cc(C)ccc3C)CC2)n1)[C@H](C)c1ccccc1 [compound 286],0,23,39,52
